Experimental data published in article PMC5423977, “Safety, pharmacokinetics, and pharmacodynamics of BMS-986142, a novel reversible BTK inhibitor, in healthy participants” (European Journal of Clinical Pharmacology, 2017).
Where two headings read alike, the source gives them in different places.

Key:
[1] = Stability of methotrexate and 7-hydroxymethotrexate in human sodium heparin plasma and processed samples (bioanalytical validation); type: physicochemical
Description: Method validation was carried out according to the Bristol-Myers Squibb Standard Operating Procedures (SOPs) for chromatographic method validation which conforms to the U.S. FDA’s Good Laboratory Practice (GLP) regulations (21 CFR part 58). The validation experiments included but were not limited to the determination of the lower limit of quantification (LLOQ), specificity, accuracy and precision, recovery, and analyte stability under the expected conditions of sample transfer, sample storage, and sample preparation. The LLOQ of the assay was determined to be 1 ng/mL using six different lots of plasma. No interference from the endogenous components and the internal standard was observed.
The accuracy and precision data for BMS-986142, based on the maximum value from all six QC levels, obtained using one-way ANOVA in Watson are listed in Table 1. The recovery of the analyte from human plasma during extraction was determined at 3 ng/mL and 800 ng/mL for BMS-986142, at 3 ng/mL, 30 ng/mL and 750 ng/mL for methotrexate and 7-hydroxymethotrexate, by comparing the response ratios in human plasma samples spiked with the analyte prior to extraction with those spiked post-extraction. The recovery for BMS-986142 is 89-90%. The recoveries for methotrexate and 7-hydroxymethotrexate are 88-94% and 83-88%, respectively. The room temperature, freeze-thaw, and frozen storage stability of BMS-986142 were evaluated in triplicate or quadruplicate using Low QC, High QC, and Dilution QC. The reinjection integrity was assessed by re-injecting an entire run. The deviations of the mean predicted concentrations of the test samples from the nominal concentrations were used as an indicator of the stability of the analyte.

[2] = system: rat adjuvant-induced arthritis model; design: method as in PMID 22228807; conditions: alone or in combination with MTX; cited from earlier work
[3] = system: animal models of arthritis; design: method as in PMID 21752263, PMID 21521773; conditions: cited from earlier work
[4] = Safety (adverse events), Study 2 MTX-DDI in healthy male participants
Description: This portion of the study was designed to assess the effect of BMS-986142 on the PK of MTX since MTX is used as a background therapy in RA patients and all patients will receive MTX when the phase 2 study of BMS-986142 is conducted. Eligible participants were confined to the clinical facility for the duration of treatment (15 days). Healthy participants were administered a single oral dose of 7.5 mg MTX on day 1. On day 2, participants received leucovorin (a single oral dose of 15 mg) as a preventive measure for MTX toxicity. After a washout period (days 2–5), BMS-986142 was administered on days 6–10 in 350-mg QD doses. A concomitant dose of MTX (7.5 mg) was administered on day 8, followed by leucovorin (15 mg) on day 9 (Online Resource 2). BMS-986142 was administered with 240 mL of water, and a minimum amount of additional water was permitted to allow dosing of all medications. Only healthy male participants (ages ≥18 to ≤50 years) were eligible for the MTX-DDI assessment in study 2. Other key inclusion and exclusion criteria were identical to those in study 1.
Participants were monitored for adverse events (AEs) throughout the study. Clinical laboratory tests, vital sign measurements, 12-lead ECGs, and physical examinations were performed at selected times throughout the dosing interval. Safety data was recorded in the participants’ medical records, and assessments were performed for emergent AEs or serious AEs (SAEs). For all AEs, causal relationship to the study drug was determined by an investigator.

[5] = Effect of BMS-986142 on single-dose plasma PK of MTX (DDI); type: in vivo, human; conditions: for AUC(0-inf): read-out: AUC(inf), geometric mean (adjusted); for Cmax: read-out: Cmax, geometric mean (adjusted)
Description: Blood samples for the measurement of BMS-986142 were collected up to 168 h after dosing of BMS-986142 on day 1 for participants in SAD. In MAD, blood samples were collected up to 24 h on day 1 and up to 120 h on day 14 (the last day of treatment). Blood samples for the measurement of MTX were collected up to 48 h after dosing of MTX on days 1 and 8.
Plasma samples were analyzed for BMS-986142 levels with a validated method using liquid chromatography tandem mass spectrometry (LC-MS/MS) detection. The analyte was extracted from 50 μL of plasma using a liquid–liquid extraction method. Methyl tert-butyl ether was used as the extraction solvent. The lower limit of quantification (LLOQ) was 1.00 ng/mL in plasma. Plasma samples were analyzed for methotrexate levels using LC-MS/MS detection. Analytes were isolated from 50 μL plasma through solid phase extraction using Waters Oasis MAX, 10-mg, 96-well SPE plates. The final extract was analyzed using LC-MS/MS detection. LLOQ was 1.00 ng/mL in plasma. Detailed methodology quantitating the concentration level of BMS-986142 and MTX is provided in Online Resource 10.
Individual subject pharmacokinetic parameters for BMS-986142 and MTX were derived by a non-compartmental method using validated PK software (WinNonLin version 6.3; Pharsight Corporation, Mountain View, CA, USA). The following PK parameters for BMS-986142 and MTX were derived from plasma concentration versus time data: maximum observed plasma concentration (Cmax); minimum observed plasma concentration (Cmin); time to maximum observed plasma concentration (Tmax); area under the plasma concentration-time curve from time zero to the time of the last quantifiable concentration (AUC(0-T)), from time zero extrapolated to infinite time (AUC(inf)), and in one dosing interval (AUC(TAU)); terminal plasma half-life (T1/2); and AUC accumulation index (AI_AUC). AI_AUC was calculated to divide AUC(TAU) on day 14 by AUC(TAU) on day 1.
Statistical analyses were conducted to assess the effect of coadministration of BMS-986142 on the PK of MTX. For all treatment comparisons, a linear mixed-effect model was fitted to the log-transformed PK parameters Cmax, AUC(0-T), and AUC(inf). Point estimates and 90% CIs for differences on the log-scale were exponentiated to obtain estimates for geometric mean ratios (GMRs) and respective 90% CIs on the original scale. Sample size determination is based on consideration of the precision of the estimate of the GMRs of AUCs of MTX with and without BMS-986142. With 9 evaluable subjects, there will be an 80% probability that the 90% CI of AUC(INF) GMR will be within 89.9 to 111.2% of the point estimate. These precision estimates are based on an assumption that Cmax and AUC(INF) of MTX are log-normally distributed with intrasubject CV of 14.67 and 10.38%, respectively, as calculated from Namour et al..

[6] = 7-hydroxymethotrexate, 24 hours at RT in Plasma, High QC 750
[7] = 7-hydroxymethotrexate, 24 hours at RT in Plasma, Low QC 3.00
[8] = 7-hydroxymethotrexate, 142 h Processed sample stability, High QC 750
[9] = 7-hydroxymethotrexate, 142 h Processed sample stability, Low QC 3.00
[10] = 7-hydroxymethotrexate, 6 days at 5 °C Re-injection integrity, High QC 750
[11] = 7-hydroxymethotrexate, 6 days at 5 °C Re-injection integrity, Low QC 3.00
[12] = 7-hydroxymethotrexate, 449 day at -20 °C in Plasma, High QC 750
[13] = 7-hydroxymethotrexate, 449 day at -20 °C in Plasma, Low QC 3.00
[14] = 7-hydroxymethotrexate, After 4 Freeze-Thaw Cycle in Plasma, High QC 750
[15] = 7-hydroxymethotrexate, After 4 Freeze-Thaw Cycle in Plasma, Low QC 3.00
[16] = MTX 7.5 mg (Day 1) + leucovorin 15 mg (Day 2), n = 12
[17] = methotrexate, 24 hours at RT in Plasma, High QC 750
[18] = methotrexate, 24 hours at RT in Plasma, Low QC 3.00
[19] = methotrexate, 142 h Processed sample stability, High QC 750
[20] = methotrexate, 142 h Processed sample stability, Low QC 3.00
[21] = methotrexate, 6 days at 5 °C Re-injection integrity, High QC 750
[22] = methotrexate, 6 days at 5 °C Re-injection integrity, Low QC 3.00
[23] = methotrexate, 449 day at -20 °C in Plasma, High QC 750
[24] = methotrexate, 449 day at -20 °C in Plasma, Low QC 3.00
[25] = methotrexate, After 4 Freeze-Thaw Cycle in Plasma, High QC 750
[26] = methotrexate, After 4 Freeze-Thaw Cycle in Plasma, Low QC 3.00
[27] = male, human, plasma, oral, Treatment D: single-dose methotrexate 7.5 mg (day 1) + leucovorin 15 mg (day 2)
[28] = male, human, plasma, oral, Treatment F: BMS-986142 350 mg QD + single-dose methotrexate 7.5 mg (day 8) + leucovorin 15 mg (day 9)
[29] = methotrexate with BMS-986142 350 mg QD vs methotrexate alone

SMILES: CN(Cc1nc2c(N)nc(N)nc2[nH]c1=O)c1ccc(C(=O)N[C@@H](CCC(=O)O)C(=O)O)cc1 [7-hydroxymethotrexate]
- Stability, %Dev [1, 6]: -0.3%
- Stability, Mean Conc. [1, 6]: 747 ng/mL
- Stability, %Dev [1, 7]: 9.2%
- Stability, Mean Conc. [1, 7]: 3.28 ng/mL
- Stability, %Dev [1, 8]: -8.1%
- Stability, Mean Conc. [1, 8]: 689 ng/mL
- Stability, %Dev [1, 9]: -8.7%
- Stability, Mean Conc. [1, 9]: 2.74 ng/mL
- Stability, %Dev [1, 10]: 0.4%
- Stability, Mean Conc. [1, 10]: 753 ng/mL
- Stability, %Dev [1, 11]: 5.7%
- Stability, Mean Conc. [1, 11]: 3.17 ng/mL
- Stability, %Dev [1, 12]: -0.3%
- Stability, Mean Conc. [1, 12]: 747 ng/mL
- Stability, %Dev [1, 13]: -10.4%
- Stability, Mean Conc. [1, 13]: 2.69 ng/mL
- Stability, %Dev [1, 14]: 0.2%
- Stability, Mean Conc. [1, 14]: 751 ng/mL
- Stability, %Dev [1, 15]: 1.4%
- Stability, Mean Conc. [1, 15]: 3.04 ng/mL

SMILES: CN1CCN(c2ccc(Nc3cc(-c4cccc(-n5ccc6cc(C7CC7)cc(F)c6c5=O)c4CO)cn(C)c3=O)nc2)CC1 [RN486]
- Efficacy on joint and systemic inflammation [2]: efficacious in reducing joint and systemic inflammation

SMILES: C=CC(=O)N1CCC[C@@H](n2nc(-c3ccc(Oc4ccccc4)cc3)c3c(N)ncnc32)C1 [PCI-32765]
- Efficacy in animal models of arthritis [3]: Dose-dependent efficacy

SMILES: CN(Cc1cnc2nc(N)nc(N)c2n1)c1ccc(C(=O)N[C@@H](CCC(=O)O)C(=O)O)cc1 [methotrexate, reference compound]
- AE SOC: Gastrointestinal Disorders [4, 16]: 0 n (%)
- AE SOC: General disorders and administration site conditions [4, 16]: 1 (8.3) n (%)
- AE SOC: Infections and infestations [4, 16]: 0 n (%)
- AE SOC: Injury, poisoning and procedural complications [4, 16]: 0 n (%)
- AE SOC: Nervous system disorders [4, 16]: 1 (8.3) n (%)
- AE SOC: Psychiatric disorders [4, 16]: 0 n (%)
- AE: Anxiety [4, 16]: 0 n (%)
- AE: Arthropod Bite [4, 16]: 0 n (%)
- AE: Asthenia [4, 16]: 1 (8.3) n (%)
- AE: Dizziness [4, 16]: 1 (8.3) n (%)
- AE: Fatigue [4, 16]: 0 n (%)
- AE: Headache [4, 16]: 0 n (%)
- AE: Nausea [4, 16]: 0 n (%)
- AE: Sleep Disorder [4, 16]: 0 n (%)
- AE: Tremor [4, 16]: 1 (8.3) n (%)
- Total participants with an event [4, 16]: 1 (8.3) n (%)
- Number of AEs reported ([4]; Study 2, single-dose MTX on day 1): Three
- Stability, %Dev [1, 17]: 0.2%
- Stability, Mean Conc. [1, 17]: 751 ng/mL
- Stability, %Dev [1, 18]: -0.1%
- Stability, Mean Conc. [1, 18]: 3.00 ng/mL
- Stability, %Dev [1, 19]: -13.1%
- Stability, Mean Conc. [1, 19]: 652 ng/mL
- Stability, %Dev [1, 20]: -9.2%
- Stability, Mean Conc. [1, 20]: 2.72 ng/mL
- Stability, %Dev [1, 21]: -2.2%
- Stability, Mean Conc. [1, 21]: 734 ng/mL
- Stability, %Dev [1, 22]: 3.4%
- Stability, Mean Conc. [1, 22]: 3.10 ng/mL
- Stability, %Dev [1, 23]: 0.6%
- Stability, Mean Conc. [1, 23]: 755 ng/mL
- Stability, %Dev [1, 24]: -9.9%
- Stability, Mean Conc. [1, 24]: 2.70 ng/mL
- Stability, %Dev [1, 25]: -2.1%
- Stability, Mean Conc. [1, 25]: 734 ng/mL
- Stability, %Dev [1, 26]: 3.7%
- Stability, Mean Conc. [1, 26]: 3.11 ng/mL
- AUC(0-T), geometric mean (adjusted) ([5]; Treatment D: single-dose methotrexate 7.5 mg (day 1) + leucovorin 15 mg (day 2)): 613 ng·h/mL
- AUC(0-inf) [5, 27]: 625 ng·h/mL
- Cmax [5, 27]: 178 ng/mL
- AUC(0-t) ([5]; male, human, plasma, oral, Treatment F: BMS-986142 350 mg QD + single-dose methotrexate 7.5 mg (day 8) + leucovorin 15 mg (day 9), read-out: AUC(0-T), geometric mean (adjusted)): 638 ng·h/mL
- AUC(0-inf) [5, 28]: 654 ng·h/mL
- Cmax [5, 28]: 186 ng/mL
- AUC(0-T), adjusted geometric mean ratio F vs D [5, 29]: 1.041
- AUC(inf), adjusted geometric mean ratio F vs D [5, 29]: 1.045
- Cmax, adjusted geometric mean ratio F vs D [5, 29]: 1.046

SMILES: Cc1c(NC(=O)c2cc3c(s2)CCCC3)cccc1-c1cn(C)c(=O)c(Nc2ccc([C@@H]3C(=O)N(C)CCN3C)cc2)n1 [GDC-0834]
- Efficacy in animal models of arthritis [3]: Dose-dependent efficacy
